Laboratory results as given in patent US11000033B2, “Ketone or oxime compound, and herbicide” (NISSAN CHEMICAL CORPORATION, priority 2014, dated 2021).

Assays:
Assay type in all cases: in vivo
Chenopodium album = assay: Test Example 4: herbicidal effect by soil treatment (symbol O); conditions: application herbicide amount 320 g/ha
In short: (§1)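 Seeds were sown in sterilized diluvial soil, covered with about 1.5 cm of soil, and the soil surface was sprayed with a water-diluted emulsion of the compound at a predetermined rate. Plants grew in a greenhouse at 25° C. to 30° C.; effects were scored visually 3 weeks after application.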

beet = assay: Test Example 5: effect on crop by foliage application, plastic box (symbol f); conditions: 320 g/ha, 3 weeks after application
In short: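 Seeds were sown in spots in sterilized diluvial soil held in a plastic box 21 cm × 13 cm × 7 cm deep, covered with about 1.5 cm of soil, and grown in a greenhouse at 25° C. to 30° C.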

Avena fatua = assay: Test Example 4: herbicidal effect by soil treatment (symbol I); conditions: application herbicide amount 320 g/ha
In short: as §1

Alopecurus myosuroides = assay: Test Example 4: herbicidal effect by soil treatment (symbol J); conditions: application herbicide amount 320 g/ha
In short: as §1

Digitaria ciliaris = assay: Test Example 5: herbicidal effect by foliage application, plastic box (symbol F); conditions: 320 g/ha, 3 weeks after application
In short: (§2)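 Herbicide, formulated as an emulsion and diluted in water, is sprayed onto the aerial parts of 14-day seedlings. These were grown at 25° C. to 30° C. in sterilized diluvial soil; effects are graded after 3 weeks.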

Leptochloa chinensis = assay: Test Example 3: herbicidal effect by foliage application, Wagner pot (symbol D); conditions: application herbicide amount 320 g/ha
In short: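 Weeds and rice were sown in alluvial soil under 0.1–0.5 cm of standing water and grown for 14 days in a 25–30 °C greenhouse. An emulsion of the compound, diluted in water to a set dose, was sprayed evenly onto the foliage. Effect was scored against fixed criteria 3 weeks after treatment.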

Monochoria vaginalis = assay: Test Example 2: herbicidal activity, application during weed generation in submerged conditions (symbol C); conditions: Table 23; application herbicide amount 320 g/ha; grade 0-5 by criteria of Test Example 1
In short: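 Alluvial soil in pots was flooded to a 4 cm water depth and sown with a mix of the three weed species, then grown in a greenhouse at 25° C. to 30° C. At the one- to two-leaf stage, an emulsifiable formulation diluted in water to a set dose was applied to the water surface. Effects were scored visually 3 weeks later.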

Galium spurium = assay: Test Example 4: herbicidal effect by soil treatment (symbol Q); conditions: application herbicide amount 320 g/ha
In short: as §1

rice = assay: Test Example 4: effect on crop by soil treatment (symbol b); conditions: application herbicide amount 320 g/ha
In short: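 Plants are raised in a greenhouse (25° C. to 30° C.) from spot-sown seed, which sits under about 1.5 cm of sterilized diluvial soil in a box shared with weed species.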

transplanted rice plant = assay: Test Example 1: effect on crop, application before weed generation in submerged conditions (symbol a); conditions: application herbicide amount 320 g/ha
In short: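 Rice at 2.5 leaf stage transplanted into submerged soil (4 cm depth) sown with three weed species; herbicide applied before weed emergence.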

Setaria viridis = assay: Test Example 5: herbicidal effect by foliage application, plastic box (symbol G); conditions: 320 g/ha, 3 weeks after application
In short: as §2

Row | SMILES | O: Chenopodium album, herbicidal effect grade (Chenopodium album) | f: beet, effect on crop grade (beet) | I: Avena fatua, herbicidal effect grade (Avena fatua) | J: Alopecurus myosuroides, herbicidal effect grade (Alopecurus myosuroides) | F: Digitaria ciliaris, herbicidal effect grade (Digitaria ciliaris) | herbicidal effect on D (Leptochloa chinensis), grade 0-5 (Leptochloa chinensis) | Herbicidal effect grade, C: Monochoria vaginalis (Monochoria vaginalis) | Q: Galium spurium, herbicidal effect grade (Galium spurium) | b: directly sowed rice plant, effect on crop grade (rice) | Effect grade on crop, a: transplanted rice plant (transplanted rice plant) | G: Setaria viridis, herbicidal effect grade (Setaria viridis)
1 | CCc1cc(C)cc(C)c1C1=C(O)CC(CC(C)=NOC)C1=O (stereo not drawn) [6-007] | 0 (Herbicidal ratio of 5% or lower (almost no effect)) | 0 (Herbicidal ratio of 5% or lower (almost no effect)) | 4 (Herbicidal ratio of 70% or higher and lower than 90%) | 5 (Herbicidal ratio of 90% or more (almost completely withered)) | 5 (Herbicidal ratio of 90% or more (almost completely withered)) | 5 (Herbicidal ratio of 90% or more (almost completely withered)) | 2 (Herbicidal ratio of 20% or higher and lower than 40%) | 0 (Herbicidal ratio of 5% or lower (almost no effect)) | 5 (Herbicidal ratio of 90% or more (almost completely withered)) | 5 (Herbicidal ratio of 90% or more (almost completely withered)) | 5 (Herbicidal ratio of 90% or more (almost completely withered))
2 | CON=C(C)CC1CC(O)=C(c2c(C)cc(C)cc2OC)C1=O (stereo not drawn) [6-037, 3-hydroxy-2-(2-methoxy-4,6-dimethylphenyl)-5-{2-(methoxyimino)propyl}cyclopent-2-enone] | 0 (Herbicidal ratio of 5% or lower (almost no effect)) | 3 (Herbicidal ratio of 40% or higher and lower than 70%) | 5 (Herbicidal ratio of 90% or more (almost completely withered)) | 5 (Herbicidal ratio of 90% or more (almost completely withered)) | 5 (Herbicidal ratio of 90% or more (almost completely withered)) | 5 (Herbicidal ratio of 90% or more (almost completely withered)) | 4 (Herbicidal ratio of 70% or higher and lower than 90%) | 0 (Herbicidal ratio of 5% or lower (almost no effect)) | 5 (Herbicidal ratio of 90% or more (almost completely withered)) | 5 (Herbicidal ratio of 90% or more (almost completely withered)) | 5 (Herbicidal ratio of 90% or more (almost completely withered))
3 | CON=C(C)CC1CC(O)=C(c2c(C)cc(OCC(F)(F)F)cc2C)C1=O (stereo not drawn) [6-049] | 4 (Herbicidal ratio of 70% or higher and lower than 90%) | 4 (Herbicidal ratio of 70% or higher and lower than 90%) | 5 (Herbicidal ratio of 90% or more (almost completely withered)) | 5 (Herbicidal ratio of 90% or more (almost completely withered)) | 5 (Herbicidal ratio of 90% or more (almost completely withered)) | 5 (Herbicidal ratio of 90% or more (almost completely withered)) | 3 (Herbicidal ratio of 40% or higher and lower than 70%) | 3 (Herbicidal ratio of 40% or higher and lower than 70%) | 5 (Herbicidal ratio of 90% or more (almost completely withered)) | 5 (Herbicidal ratio of 90% or more (almost completely withered)) | 5 (Herbicidal ratio of 90% or more (almost completely withered))
